Laboratory results from ChEMBL document CHEMBL1201862, “PubChem BioAssay data set” (2004).
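A five-concentration, 48-hour dose response in 96-well plates underlies each endpoint, interpolated linearly between surrounding concentrations. Here, GI50 denotes the concentration required for 50% inhibition of growth.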 Activity calls are given as the source filed them. Cut-off read from the data, not from the text of the source: active = GI50 up to about 1.1 µM and inactive = higher.

Assays:
Assay in all cases: growth of human tumour cells (NCI), 48 h
HCC 2998 = system: HCC 2998
OVCAR-8 = system: OVCAR-8
NCI-H226 = system: NCI-H226
IGROV-1 = system: IGROV-1
NCI-H460 = system: NCI-H460
LOX IMVI = system: LOX IMVI
ACHN = system: ACHN
UO-31 = system: UO-31
OVCAR-3 = system: OVCAR-3
SR = system: SR
SF-295 = system: SF-295
CCRF-CEM = system: CCRF-CEM
SF-268 = system: SF-268
NCI-H522 = system: NCI-H522
SNB-78 = system: SNB-78
HCT-15 = system: HCT-15
XF498 = system: XF498
EKVX = system: EKVX
LXFL 529 = system: LXFL 529
OVCAR-4 = system: OVCAR-4
A549 = system: A549
SNB-19 = system: SNB-19
COLO 205 = system: COLO 205
HCT-116 = system: HCT-116
RPMI-8226 = system: RPMI-8226
OVCAR-5 = system: OVCAR-5
DMS-114 = system: DMS-114
CAKI-1 = system: CAKI-1
SK-MEL-2 = system: SK-MEL-2
SW-620 = system: SW-620
NCI-H23 = system: NCI-H23
KM12 = system: KM12
HL-60 = system: HL-60
SNB-75 = system: SNB-75
M14 = system: M14
DLD-1 = system: DLD-1
SK-MEL-5 = system: SK-MEL-5
U-251 = system: U-251
SK-OV-3 = system: SK-OV-3
HOP-62 = system: HOP-62
KM-20L2 = system: KM-20L2
Malme-3M = system: Malme-3M
MOLT-4 = system: MOLT-4
HT-29 = system: HT-29
UACC-257 = system: UACC-257
TK-10 = system: TK-10
SK-MEL-28 = system: SK-MEL-28
UACC-62 = system: UACC-62
786-0 = system: 786-0
SF-539 = system: SF-539
HOP-92 = system: HOP-92
M19-MEL = system: M19-MEL
K562 = system: K562

Q: For NC(=O)NC1C(C(=O)O)N(Cc2ccccc2)C(=O)N1Cc1ccccc1 (stereo not drawn), which GI50 (HCC 2998) is on record?
A: > 100 µM (inactive)

Q: And the GI50 (OVCAR-8)?
A: > 100 µM (inactive)

Q: And the GI50 (NCI-H226)?
A: > 100 µM (inactive)

Q: What about the GI50 (IGROV-1) of the same compound?
A: > 100 µM (inactive)

Q: And the GI50 (NCI-H460)?
A: > 100 µM (inactive)

Q: And the GI50 (LOX IMVI)?
A: > 100 µM (inactive)

Q: And the GI50 (ACHN)?
A: > 100 µM (inactive)

Q: What about the GI50 (UO-31) of the same compound?
A: > 100 µM (inactive)

Q: And the GI50 (OVCAR-3)?
A: > 100 µM (inactive)

Q: What about the GI50 (SR) of the same compound?
A: > 100 µM (inactive)

Q: And the GI50 (SF-295)?
A: > 100 µM (inactive)

Q: And the GI50 (CCRF-CEM)?
A: > 100 µM (inactive)

Q: What about the GI50 (SF-268) of the same compound?
A: > 100 µM (inactive)

Q: What about the GI50 (NCI-H522) of the same compound?
A: > 100 µM (inactive)

Q: What about the GI50 (SNB-78) of the same compound?
A: > 100 µM (inactive)

Q: And the GI50 (HCT-15)?
A: > 100 µM

Q: And the GI50 (XF498)?
A: > 100 µM (inactive)

Q: And the GI50 (EKVX)?
A: > 100 µM (inactive)

Q: And the GI50 (LXFL 529)?
A: > 100 µM (inactive)

Q: What about the GI50 (OVCAR-4) of the same compound?
A: > 100 µM (inactive)

Q: What about the GI50 (A549) of the same compound?
A: > 100 µM (inactive)

Q: What about the GI50 (SNB-19) of the same compound?
A: > 100 µM (inactive)

Q: What about the GI50 (COLO 205) of the same compound?
A: > 100 µM (inactive)

Q: What about the GI50 (HCT-116) of the same compound?
A: > 100 µM (inactive)

Q: And the GI50 (RPMI-8226)?
A: > 100 µM (inactive)

Q: What about the GI50 (OVCAR-5) of the same compound?
A: > 100 µM (inactive)

Q: And the GI50 (DMS-114)?
A: > 100 µM (inactive)

Q: What about the GI50 (CAKI-1) of the same compound?
A: > 100 µM (inactive)

Q: And the GI50 (SK-MEL-2)?
A: > 100 µM (inactive)

Q: And the GI50 (SW-620)?
A: > 100 µM (inactive)

Q: What about the GI50 (NCI-H23) of the same compound?
A: > 100 µM (inactive)

Q: What about the GI50 (KM12) of the same compound?
A: > 100 µM (inactive)

Q: What about the GI50 (HL-60) of the same compound?
A: > 100 µM (inactive)

Q: And the GI50 (SNB-75)?
A: > 100 µM (inactive)

Q: And the GI50 (M14)?
A: > 100 µM (inactive)

Q: And the GI50 (DLD-1)?
A: > 100 µM (inactive)

Q: And the GI50 (SK-MEL-5)?
A: > 100 µM (inactive)

Q: What about the GI50 (U-251) of the same compound?
A: > 100 µM (inactive)

Q: And the GI50 (SK-OV-3)?
A: > 100 µM (inactive)

Q: And the GI50 (HOP-62)?
A: > 100 µM (inactive)

Q: And the GI50 (KM-20L2)?
A: > 100 µM (inactive)

Q: And the GI50 (Malme-3M)?
A: > 100 µM (inactive)

Q: What about the GI50 (MOLT-4) of the same compound?
A: 3.72 µM (inactive)

Q: And the GI50 (HT-29)?
A: > 100 µM (inactive)

Q: What about the GI50 (UACC-257) of the same compound?
A: > 100 µM (inactive)

Q: What about the GI50 (TK-10) of the same compound?
A: > 100 µM (inactive)

Q: And the GI50 (SK-MEL-28)?
A: > 100 µM (inactive)

Q: What about the GI50 (UACC-62) of the same compound?
A: > 100 µM (inactive)

Q: What about the GI50 (786-0) of the same compound?
A: > 100 µM (inactive)

Q: And the GI50 (SF-539)?
A: > 100 µM (inactive)

Q: And the GI50 (HOP-92)?
A: > 100 µM (inactive)

Q: What about the GI50 (M19-MEL) of the same compound?
A: > 100 µM (inactive)

Q: And the GI50 (K562)?
A: > 100 µM (inactive)
